Laboratory results published in article PMC5147771, “High-Resolution Genetics Identifies the Lipid Transfer Protein Sec14p as Target for Antifungal Ergolines” (PLoS Genetics, 2016).
≈ marks a conversion by molar mass, not a printed value. Read-outs that look alike come from different tables or passages of the source.

Assays:
[1] = system: FLU-resistant C. neoformans strain BPY22; assay: microbe, parasite or virus in culture; type: cell-based; conditions: for MIC: Cryptococcus neoformans, 48 h
[2] = system: FLU-sensitive (DSY4982) and FLU-resistant (BPY22 and BPY17) C. neoformans isolates; type: cell-based

SMILES | MIC ([1]; read-out: MIC-0) [µg/mL] | MIC ([1]; read-out: MIC-2) [µg/mL] | mechanism of inhibition (fungicidal vs fungistatic) [2] | activity against FLU-resistant strain (in words) [1]
CN1C[C@H](C(=O)Nc2cccc(C(F)(F)F)c2)C[C@@H]2c3cccc4c3[C@H](C[C@H]21)CN4C(=O)OC(C)(C)C [NGx03] | 32 (≈ 62.1 µM) | 16 (≈ 31 µM) | fungicidal effect | 
COC(=O)[C@@H]1C[C@@H]2c3c([N+](=O)[O-])ccc4c3[C@H](C[C@H]2N(C)C1)CN4C(=O)OCC(Cl)(Cl)Cl [NGx19] |  |  |  | weaker activity
COC(=O)[C@@H]1C[C@@H]2c3cccc4c3[C@H](C[C@H]2N(C)C1)CN4C(=O)OCC(Cl)(Cl)Cl [NGx16] |  |  | fungicidal effect | weaker activity
